Data: US20260356819A1, “OXOISOINDOLINYL-SUBSTITUTED […] DERIVATIVE AND USE THEREOF” (GLUETACS THERAPEUTICS (SHANGHAI) CO., LTD., priority 2023, published 2026)

Legend:
GSPT1 = molecular target: T1, GSPT1 (Homo sapiens, UniProt P15170+Q96SW2); test: Western blot degradation of GSPT1 in hPBMCs (24 h); assay type: cell-based; settings: compounds at 50 nM and 500 nM
T1 construct: The supernatant was aspirated as the extracted total cell protein; endogenous in cells; host or cells: human peripheral blood mononuclear cells (hPBMCs)
T1 sequence (P15170 whole entry): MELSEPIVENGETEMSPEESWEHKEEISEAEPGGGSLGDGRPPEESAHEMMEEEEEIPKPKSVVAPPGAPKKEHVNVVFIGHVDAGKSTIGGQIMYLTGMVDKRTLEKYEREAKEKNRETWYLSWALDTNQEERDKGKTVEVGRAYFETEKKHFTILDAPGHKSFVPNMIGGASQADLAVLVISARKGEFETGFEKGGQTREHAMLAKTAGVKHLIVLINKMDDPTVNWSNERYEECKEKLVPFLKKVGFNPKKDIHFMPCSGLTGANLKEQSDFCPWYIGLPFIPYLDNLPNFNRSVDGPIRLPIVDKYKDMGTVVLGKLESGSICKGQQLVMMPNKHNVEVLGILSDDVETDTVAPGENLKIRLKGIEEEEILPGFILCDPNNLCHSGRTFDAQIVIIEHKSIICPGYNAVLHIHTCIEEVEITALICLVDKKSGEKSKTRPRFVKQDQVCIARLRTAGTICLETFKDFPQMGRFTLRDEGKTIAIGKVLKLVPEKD
T1 sequence (Q96SW2 whole entry): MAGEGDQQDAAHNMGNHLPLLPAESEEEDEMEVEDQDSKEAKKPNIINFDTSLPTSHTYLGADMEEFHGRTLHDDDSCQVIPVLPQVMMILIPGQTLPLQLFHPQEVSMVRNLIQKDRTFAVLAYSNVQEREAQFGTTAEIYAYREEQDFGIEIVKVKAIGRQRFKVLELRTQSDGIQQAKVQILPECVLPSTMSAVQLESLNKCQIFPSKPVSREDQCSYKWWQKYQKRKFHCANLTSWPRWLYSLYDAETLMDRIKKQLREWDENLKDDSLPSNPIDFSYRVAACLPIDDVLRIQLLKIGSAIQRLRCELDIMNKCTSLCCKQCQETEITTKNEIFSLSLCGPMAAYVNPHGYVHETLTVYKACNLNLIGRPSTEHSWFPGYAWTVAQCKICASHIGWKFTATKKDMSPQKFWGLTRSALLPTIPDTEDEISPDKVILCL
T1 sequence (Q16531 whole entry partner): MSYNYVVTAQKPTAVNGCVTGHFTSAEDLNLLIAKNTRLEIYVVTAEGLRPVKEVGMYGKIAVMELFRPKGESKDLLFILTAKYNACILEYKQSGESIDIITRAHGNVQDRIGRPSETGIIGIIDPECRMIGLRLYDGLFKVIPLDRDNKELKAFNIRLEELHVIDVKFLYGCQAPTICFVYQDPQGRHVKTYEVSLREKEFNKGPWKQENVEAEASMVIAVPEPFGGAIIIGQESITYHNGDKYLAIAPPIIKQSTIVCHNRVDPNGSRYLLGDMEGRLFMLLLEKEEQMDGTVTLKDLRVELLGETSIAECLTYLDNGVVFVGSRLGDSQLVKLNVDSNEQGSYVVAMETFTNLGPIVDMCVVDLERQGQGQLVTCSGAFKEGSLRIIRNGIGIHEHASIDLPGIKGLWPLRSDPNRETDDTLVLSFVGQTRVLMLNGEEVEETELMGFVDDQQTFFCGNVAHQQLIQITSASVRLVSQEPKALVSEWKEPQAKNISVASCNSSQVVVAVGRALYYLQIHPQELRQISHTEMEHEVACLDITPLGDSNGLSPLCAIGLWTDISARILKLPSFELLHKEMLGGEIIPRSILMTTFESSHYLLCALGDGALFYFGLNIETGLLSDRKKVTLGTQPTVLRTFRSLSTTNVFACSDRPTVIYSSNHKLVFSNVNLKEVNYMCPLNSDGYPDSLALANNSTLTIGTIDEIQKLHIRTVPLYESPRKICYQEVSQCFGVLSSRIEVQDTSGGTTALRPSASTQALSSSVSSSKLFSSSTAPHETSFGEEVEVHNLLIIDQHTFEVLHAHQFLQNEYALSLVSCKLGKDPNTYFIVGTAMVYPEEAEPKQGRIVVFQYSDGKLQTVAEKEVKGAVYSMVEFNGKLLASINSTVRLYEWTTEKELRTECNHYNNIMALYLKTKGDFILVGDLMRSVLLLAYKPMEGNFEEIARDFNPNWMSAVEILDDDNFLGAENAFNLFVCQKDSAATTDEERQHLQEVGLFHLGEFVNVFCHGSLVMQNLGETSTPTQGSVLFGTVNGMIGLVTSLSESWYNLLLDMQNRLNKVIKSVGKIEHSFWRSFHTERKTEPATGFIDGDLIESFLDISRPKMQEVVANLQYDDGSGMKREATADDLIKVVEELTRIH
In short: (§1)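 Compounds were tested at 50 nM and 500 nM on hPBMCs (1×10^6 cells/mL) for 24 h, alongside DMSO. Proteins were detected by Western blot after denaturation at 95 °C; remaining protein computed from normalised band grayscale.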

CK1α = molecular target: T2, CK1α (Homo sapiens, UniProt P48729+Q96SW2); test: Western blot degradation of CK1α in hPBMCs (24 h); assay type: cell-based; settings: compounds at 50 nM and 500 nM
T2 construct: The supernatant was aspirated as the extracted total cell protein; endogenous in cells; host or cells: human peripheral blood mononuclear cells (hPBMCs)
T2 sequence (P48729 whole entry): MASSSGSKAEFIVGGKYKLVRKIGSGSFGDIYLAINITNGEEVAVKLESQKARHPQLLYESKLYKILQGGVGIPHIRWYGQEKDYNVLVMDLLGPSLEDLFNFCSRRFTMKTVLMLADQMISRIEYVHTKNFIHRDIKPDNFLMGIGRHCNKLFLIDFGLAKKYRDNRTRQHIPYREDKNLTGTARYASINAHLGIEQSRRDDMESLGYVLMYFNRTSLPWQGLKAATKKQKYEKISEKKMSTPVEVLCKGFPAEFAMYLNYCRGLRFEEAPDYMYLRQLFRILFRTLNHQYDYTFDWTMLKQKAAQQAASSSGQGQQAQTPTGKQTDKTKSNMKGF
T2 sequence (Q96SW2 whole entry): as the sequence (Q96SW2 whole entry) above
T2 sequence (Q16531 whole entry partner): as the sequence (Q16531 whole entry partner) above
In short: as §1

IKZF3 = molecular target: T3, IKZF3 (Homo sapiens, UniProt Q96SW2+Q9UKT9); test: Western blot degradation of IKZF3 in hPBMCs (24 h); assay type: cell-based; settings: compounds at 50 nM and 500 nM
T3 construct: The supernatant was aspirated as the extracted total cell protein; endogenous in cells; host or cells: human peripheral blood mononuclear cells (hPBMCs)
T3 sequence (Q9UKT9 whole entry): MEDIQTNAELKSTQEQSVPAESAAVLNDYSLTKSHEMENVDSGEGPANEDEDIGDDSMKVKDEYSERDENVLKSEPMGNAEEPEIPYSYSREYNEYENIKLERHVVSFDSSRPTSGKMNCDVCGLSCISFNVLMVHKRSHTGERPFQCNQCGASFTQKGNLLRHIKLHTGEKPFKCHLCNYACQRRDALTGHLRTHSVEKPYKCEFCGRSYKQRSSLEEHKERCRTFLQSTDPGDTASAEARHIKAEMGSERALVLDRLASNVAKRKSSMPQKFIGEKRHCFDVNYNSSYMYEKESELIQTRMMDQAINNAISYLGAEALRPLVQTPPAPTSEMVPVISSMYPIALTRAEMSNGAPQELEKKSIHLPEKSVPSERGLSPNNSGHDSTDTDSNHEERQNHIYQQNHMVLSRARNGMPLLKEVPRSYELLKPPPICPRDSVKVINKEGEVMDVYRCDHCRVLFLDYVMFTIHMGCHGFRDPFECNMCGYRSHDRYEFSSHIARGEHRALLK
T3 sequence (Q96SW2 whole entry): as the sequence (Q96SW2 whole entry) above
T3 sequence (Q16531 whole entry partner): as the sequence (Q16531 whole entry partner) above
In short: as §1

MM.1S cells = test: Inhibition of proliferation of multiple myeloma cells MM.1S (cell viability assay, 96 h); assay type: cell-based, human; settings: read-out: inhibitory activity (IC50) against tumor cells proliferation, MM.1S
Description: The tumor cells used herein were cultured in a cell culture medium listed in table 2 at 37 °C in an incubator with 5% CO2. Prior to experimentation, all cell lines used were correctly identified by STR profiling, and tested negative for Mycoplasma contamination using a Mycoplasma detection kit through routine screenings.
The IC50 values of the compounds of the present disclosure (including the compounds in Table 1, and Examples 1-498) were determined using the CellTiter-Meiluncell Luminescent Cell Viability Assay Kit from Dalian Meilun Biotech Co., Ltd. The detailed procedure is as follows: Tumor cells were seeded in 96-well cell culture plates at the densities specified in Table 3. On the following day, the test compounds of the present disclosure were subjected to serial dilution. […] Subsequently, 0.5 μL of the test compound dilution was transferred into the 96-well plate containing the cells, with each well containing 100 μL of cell culture medium. […] Into the 96-well plate, the diluted test compounds and corresponding detection reagents were added, resulting in final test compound concentrations of 500 nM and 10 nM, respectively. The experimental procedure is described below using the diluted 2 μM test compound as an example.
0.5 μL of the aforementioned diluted compound of the present disclosure (including the compounds in Table 1, and Examples 1-498) was added to the seeded cells in 100 μL of medium, yielding a final test compound concentration of 10 nM. After the cells were treated with the compounds of the present disclosure for a specified period, the cell viability assay reagent was added to the culture medium according to the kit's instructions to determine cell viability. […] All controls were treated using the same procedure as the compounds of the present disclosure. The growth inhibition curves for the compounds of the present disclosure were plotted using Prism GraphPad software, and the IC50 values were calculated therefrom.

IKZF1 = molecular target: T4, IKZF1 (Homo sapiens, UniProt Q13422+Q96SW2); test: Western blot degradation of IKZF1 in hPBMCs (24 h); assay type: cell-based; settings: compounds at 50 nM and 500 nM
T4 construct: The supernatant was aspirated as the extracted total cell protein; endogenous in cells; host or cells: human peripheral blood mononuclear cells (hPBMCs)
In short: as §1

WEE1 = molecular target: T5, WEE1 (Homo sapiens, UniProt P30291+Q96SW2); test: Western blot degradation of WEE1 in hPBMCs (24 h); assay type: cell-based; settings: compounds at 50 nM and 500 nM
T5 construct: The supernatant was aspirated as the extracted total cell protein; endogenous in cells; host or cells: human peripheral blood mononuclear cells (hPBMCs)
T5 sequence (P30291 whole entry): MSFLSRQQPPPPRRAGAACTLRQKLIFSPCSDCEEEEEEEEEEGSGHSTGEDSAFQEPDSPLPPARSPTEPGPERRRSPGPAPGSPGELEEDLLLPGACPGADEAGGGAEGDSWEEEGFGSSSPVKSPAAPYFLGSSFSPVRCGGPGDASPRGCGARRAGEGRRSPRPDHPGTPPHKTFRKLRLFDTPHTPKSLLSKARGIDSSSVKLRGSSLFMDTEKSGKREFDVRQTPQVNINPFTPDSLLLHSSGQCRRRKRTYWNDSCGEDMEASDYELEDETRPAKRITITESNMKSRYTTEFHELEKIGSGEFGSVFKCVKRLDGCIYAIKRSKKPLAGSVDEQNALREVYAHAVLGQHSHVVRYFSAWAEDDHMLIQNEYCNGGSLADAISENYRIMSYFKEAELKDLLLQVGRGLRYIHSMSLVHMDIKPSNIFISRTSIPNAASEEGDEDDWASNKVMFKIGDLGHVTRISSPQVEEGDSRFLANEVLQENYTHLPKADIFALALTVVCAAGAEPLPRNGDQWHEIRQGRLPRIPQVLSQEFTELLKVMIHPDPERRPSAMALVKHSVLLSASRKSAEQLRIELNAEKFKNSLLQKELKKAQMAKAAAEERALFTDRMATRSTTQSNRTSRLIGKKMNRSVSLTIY
T5 sequence (Q96SW2 whole entry): as the sequence (Q96SW2 whole entry) above
T5 sequence (Q16531 whole entry partner): as the sequence (Q16531 whole entry partner) above
In short: as §1

IKZF2 = molecular target: T6, IKZF2 (Homo sapiens, UniProt Q96SW2+Q9UKS7); test: Western blot degradation of IKZF2 in hPBMCs (24 h); assay type: cell-based; settings: compounds at 50 nM and 500 nM
T6 construct: The supernatant was aspirated as the extracted total cell protein; endogenous in cells; host or cells: human peripheral blood mononuclear cells (hPBMCs)
T6 sequence (Q9UKS7 whole entry): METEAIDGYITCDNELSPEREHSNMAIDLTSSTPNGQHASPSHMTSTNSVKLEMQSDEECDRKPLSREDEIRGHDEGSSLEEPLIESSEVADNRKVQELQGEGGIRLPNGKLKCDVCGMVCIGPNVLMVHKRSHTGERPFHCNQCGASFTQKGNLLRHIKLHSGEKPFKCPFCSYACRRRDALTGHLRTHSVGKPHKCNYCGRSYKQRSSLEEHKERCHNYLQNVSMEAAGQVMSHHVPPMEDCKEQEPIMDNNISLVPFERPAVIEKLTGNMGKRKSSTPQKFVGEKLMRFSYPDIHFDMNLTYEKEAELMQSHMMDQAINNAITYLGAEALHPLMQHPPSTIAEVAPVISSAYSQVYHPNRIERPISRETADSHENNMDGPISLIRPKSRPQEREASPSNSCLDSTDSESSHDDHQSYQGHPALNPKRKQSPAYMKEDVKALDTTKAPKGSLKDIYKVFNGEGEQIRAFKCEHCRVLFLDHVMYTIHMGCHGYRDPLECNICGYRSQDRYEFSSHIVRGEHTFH
T6 sequence (Q96SW2 whole entry): as the sequence (Q96SW2 whole entry) above
T6 sequence (Q16531 whole entry partner): as the sequence (Q16531 whole entry partner) above
In short: as §1

Row | SMILES | GSPT1 substrate protein remaining % (GSPT1) | CK1α substrate protein remaining % (CK1α) | IKZF3 substrate protein remaining % (IKZF3) | IC50 (MM.1S cells) | IKZF1 substrate protein remaining % (IKZF1) | WEE1 substrate protein remaining % (WEE1) | IKZF2 substrate protein remaining % (IKZF2)
1 | Cc1ccc(Sc2ccccc2N2CCN(Cc3ccc4c(c3)CN(N3CCC(=O)NC3=O)C4=O)CC2)c(C)c1 [GT-04867, 1-(5-((4-(2-((2,4-dimethylphenyl)thio)phenyl)piperazin-1-yl)methyl)-1-oxoisoindolin-2-yl)dihydropyrimidine-2,4(1H,3H)-dione] | A (0% ≤ substrate protein remaining % ≤80%) | B (80%< substrate protein remaining % ≤100%) | B (80%< substrate protein remaining % ≤100%) | 500 to 1000 nM | A (0% ≤ substrate protein remaining % ≤80%) | B (80%< substrate protein remaining % ≤100%) | B (80%< substrate protein remaining % ≤100%)
2 | O=C1CCN(N2Cc3cc(CN4CC=C(c5ccoc5)CC4)ccc3C2=O)C(=O)N1 [GT-04875, 1-(5-((4-(furan-3-yl)-3,6-dihydropyridin-1(2H)-yl)methyl)-1-oxoisoindolin-2-yl)dihydropyrimidine-2,4(1H,3H)-dione] | A (0% ≤ substrate protein remaining % ≤80%) | B (80%< substrate protein remaining % ≤100%) | B (80%< substrate protein remaining % ≤100%) | 300 to 500 nM | B (80%< substrate protein remaining % ≤100%) | A (0% ≤ substrate protein remaining % ≤80%) | B (80%< substrate protein remaining % ≤100%)
3 | O=C1CCN(N2Cc3cc(CN4CCN(C(c5ccc(F)cc5)c5ccc(F)cc5)CC4)ccc3C2=O)C(=O)N1 [GT-04894, 1-(5-((4-(bis(4-fluorophenyl)methyl)piperazin-1-yl)methyl)-1-oxoisoindolin-2-yl)dihydropyrimidine-2,4(1H,3H)-dione] | A (0% ≤ substrate protein remaining % ≤80%) | B (80%< substrate protein remaining % ≤100%) | B (80%< substrate protein remaining % ≤100%) | 500 to 1000 nM | A (0% ≤ substrate protein remaining % ≤80%) | A (0% ≤ substrate protein remaining % ≤80%) | A (0% ≤ substrate protein remaining % ≤80%)
4 | CC1(C)CCC(CN2CCN(Cc3ccc4c(c3)CN(N3CCC(=O)NC3=O)C4=O)CC2)=C(c2ccc(Cl)cc2)C1 [GT-04944, 1-(5-((4-((4′-chloro-5,5-dimethyl-3,4,5,6-tetrahydro-[1,1′-biphenyl]-2-yl)methyl)piperazin-1-yl)methyl)-1-oxoisoindolin-2-yl)dihydropyrimidine-2,4(1H,3H)-dione] | A (0% ≤ substrate protein remaining % ≤80%) | B (80%< substrate protein remaining % ≤100%) | B (80%< substrate protein remaining % ≤100%) | 500 to 1000 nM | B (80%< substrate protein remaining % ≤100%) | B (80%< substrate protein remaining % ≤100%) | B (80%< substrate protein remaining % ≤100%)
5 | O=C1CCN(N2Cc3cc(CN4CCN(c5cccc(Cl)n5)CC4)ccc3C2=O)C(=O)N1 [GT-05126, 1-(5-((4-(6-chloropyridin-2-yl)piperazin-1-yl)methyl)-1-oxoisoindolin-2-yl)dihydropyrimidine-2,4(1H,3H)-dione] | A (0% ≤ substrate protein remaining % ≤80%) | A (0% ≤ substrate protein remaining % ≤80%) | A (0% ≤ substrate protein remaining % ≤80%) | 300 to 500 nM | A (0% ≤ substrate protein remaining % ≤80%) | A (0% ≤ substrate protein remaining % ≤80%) | A (0% ≤ substrate protein remaining % ≤80%)
6 | N#Cc1ccc(N2CCN(Cc3ccc(COc4cccc5c4CN(N4CCC(=O)NC4=O)C5=O)cc3)CC2)c(F)c1 [GT-06132, 4-(4-(4-(((2-(2,4-dioxotetrahydropyrimidin-1(2H)-yl)-1-oxoisoindolin-4-yl)oxy)methyl)benzyl)piperazin-1-yl)-3-fluorobenzonitrile] | – | – | – | 100 to 300 nM | – | – | –
7 | O=C1CCN(N2C(=O)c3ccc(CN4CCN(c5nc(Cl)nc6ccsc56)CC4)cc3C2=O)C(=O)N1 [GT-08453, 5-((4-(2-chlorothieno[3,2-d]pyrimidin-4-yl)piperazin-1-yl)methyl)-2-(2,4-dioxotetrahydropyrimidin-1(2H)-yl)isoindoline-1,3-dione] | A (0% ≤ substrate protein remaining % ≤80%) | A (0% ≤ substrate protein remaining % ≤80%) | A (0% ≤ substrate protein remaining % ≤80%) | – | A (0% ≤ substrate protein remaining % ≤80%) | B (80%< substrate protein remaining % ≤100%) | B (80%< substrate protein remaining % ≤100%)
8 | O=C1CCN(N2C(=O)c3ccc(CN4CCN(c5nc(N6CCOCC6)nc6ccsc56)CC4)cc3C2=O)C(=O)N1 [GT-08455, 2-(2,4-dioxotetrahydropyrimidin-1(2H)-yl)-5-((4-(2-morpholinothieno[3,2-d]pyrimidin-4-yl)piperazin-1-yl)methyl)isoindoline-1,3-dione] | A (0% ≤ substrate protein remaining % ≤80%) | A (0% ≤ substrate protein remaining % ≤80%) | A (0% ≤ substrate protein remaining % ≤80%) | – | B (80%< substrate protein remaining % ≤100%) | B (80%< substrate protein remaining % ≤100%) | B (80%< substrate protein remaining % ≤100%)
9 | Cc1nc(C2=CCN(Cc3ccc4c(c3)C(=O)N(N3CCC(=O)NC3=O)C4=O)CC2)c2c(-c3ccccc3)csc2n1 [GT-08484, 2-(2,4-dioxotetrahydropyrimidin-1(2H)-yl)-5-((4-(2-methyl-5-phenylthieno[2,3-d]pyrimidin-4-yl)-3,6-dihydropyridin-1(2H)-yl)methyl)isoindoline-1,3-dione] | A (0% ≤ substrate protein remaining % ≤80%) | A (0% ≤ substrate protein remaining % ≤80%) | A (0% ≤ substrate protein remaining % ≤80%) | – | A (0% ≤ substrate protein remaining % ≤80%) | A (0% ≤ substrate protein remaining % ≤80%) | A (0% ≤ substrate protein remaining % ≤80%)
10 | O=C1CCN(N2Cc3cc(CN4CCN(c5nc(N6CCNCC6)c6sccc6n5)CC4)ccc3C2=O)C(=O)N1 [GT-08949, 1-(1-oxo-5-((4-(4-(piperazin-1-yl)thieno[3,2-d]pyrimidin-2-yl)piperazin-1-yl)methyl)isoindolin-2-yl)dihydropyrimidine-2,4(1H,3H)-dione] | A (0% ≤ substrate protein remaining % ≤80%) | B (80%< substrate protein remaining % ≤100%) | B (80%< substrate protein remaining % ≤100%) | – | B (80%< substrate protein remaining % ≤100%) | B (80%< substrate protein remaining % ≤100%) | B (80%< substrate protein remaining % ≤100%)
